Data as given in patent US9618524B2, “Method, composition, isolation and identification of a plaque particle and related biomarker” (Plaxgen Inc., priority 2012, dated 2017).

Assays:
Experiment in all cases: Mass spectroscopy proteomics, semi-quantitative binding affinity of serum proteins (plaqueproteome, Table 2)
Conditions in all cases: higher number = stronger affinity
[1] = test system: High Density cholesterol (Chl Large) plaque particles; design: species or system human
Protocol: (§1) The goal was to isolate plaque particles synthesized in the bio-fluids in a relatively pure form to enable their subsequent use for identification of components that contribute to the plaque formation. In order to isolate cholesterol plaque particles, the plasma or serum samples obtained from atherosclerotic subjects were first centrifuged at 5,000 rpm for 5 min and the supernatants were transferred to new centrifuge tubes. Next, the supernatants were diluted in PBS to make 50% of the serum and used for incubation with cholesterol oligomers/aggregates. Each assay was performed in 1 mL reaction (800 μL of 50% plasma or serum) and 200 μL (30 μg) of the Cholesterol aggregates and the mixtures were incubated at 37° C. for 1 hr After the incubation, the mixture was directly used for sample acquisition using flow cytometer (FACS ARIA II, BD Biosciences, San Jose, Calif.). […] In order to isolate these fractions, three sets of gates were drawn in the acquisition blot to separately sort and isolate High density or high complex cholesterol particles, Low density or low complex cholesterol particles and both High and low density cholesterol particles together.
(§2) For preparing trypsin digested peptide sequences, the isolated plaque particles were centrifuged at 10000 rpm for 5 min and the pellet containing plaque particles was resuspended in 100 μl PBS buffer. Stock solutions of digestion buffer (Ammonium Biocarbonate 50 mM), reducing buffer (DDT 100 mM) and alkylation buffer (lodoaceamide 100 mM) were prepared and stored at −20° C. for up to two months. For trypsin digestion, 100 μl of each plaque particles (2000 of Abeta-42, cholesterol, Tau and alpha-synuclein) were precipitated using cold acetone −80° C. by adding 4X's the volume. The samples were placed on dry ice for 10 min with intermittent vortex. Next, the samples were centrifuged at 4° C. at 10000 G for 10 min. Top layer of acetone was carefully removed from the tube with care not to disturb the plaque particles pellet. The samples were speed-vac for 10 min to ensure all acetone has been boiled away. The plaque particles pellet were reconstituted with 15 μl 8M Urea 100 mM Ammonium bicarbonate stock and 20 μl protease max solution. The protease max solution (Promega, Madison, Wis.) was prepared from stock by adding 60 μl 50 mM Ammonium bicarbonate and used for 3 solution digests (20 μl each). […] The tubes were incubated at 55° C. for 30 minutes. The tubes were then removed and brought to the room temperature followed by addition of 3.2 μl of 1M acrylamide and incubated at room temperature for 30 minutes. To the sample, 63 μL of 50 mM Ammonium bicarbonate was added for a final volume of 98 μl and 2 μl of trypsin (10 μg, Trypsin/Lys C Mix). After mixing the solution with pipet the samples were incubated at 37° C. overnight. After the overnight digest, the tryptic digest were quenched and acidified by adding 10 μl of 50% formic acid/water stock dilution. The samples were centrifuged at 10000 G for 2 minutes and purified using stage tip and used for MS/Mass analysis.
(§3) All MS/MS samples were analyzed using Sequest (Thermo Fisher Scientific, San Jose, Calif., USA; version 1.0). Sequest was set up to search the SUMS_uniprot_Human database (35847 entries) assuming the digestion enzyme strict trypsin. Sequest was searched with a fragment ion mass tolerance of 1.00 Da and a parent ion tolerance of 20 PPM. Propionamide of cysteine was specified in Sequest as a fixed modification. Oxidation of methionine and phospho of serine, threonine and tyrosine were specified in Sequest as variable modifications.
(§4) Scaffold (version Scaffold_4.2.1, Proteome Software Inc., Portland, Oreg.) was used to validate MS/MS based peptide and protein identifications. […] Protein probabilities were assigned by the Protein Prophet algorithm (Nesvizhskii, Al et al 2003).

[2] = test system: Low density cholesterol (Chl small) plaque particles; design: species or system human
Protocol: as §1, §2, §3, §4

Tau plaque particles = test system: Tau plaque particles; design: species or system human
Protocol: For Tau-74 (74-102) (Exon 3/Insert 2 domain) preparation, 1 mg of Tau-74 was suspended in 1 mL of PBS and the sample was incubated at 37° C. for 2 hrs. Similarly for preparing Tau-275 (275-305) (Repeat 2 domain) 1 mg of the peptide was suspended in 1 mL of PBS and the sample was incubated at 37° C. for 2 hrs. After incubation, all the samples were centrifuged for 5 min. at 5000 rpm to remove precipitate, if any, and the supernatant containing oligomers/aggregates were used for in vitro amyloid plaque particles formation assay. For detecting Tau plaque particles, Thioflavin S (Ex/Em=430 nm/550 nm) amyloid binding fluorescent dye (10 μg) was used in the assay.
Next, to isolate Tau plaque particles, as performed for Abeta-42 and Abeta-28 plaque particles isolation, diluted serum samples were used for incubation separately with Tau-45, Tau-74 and Tau-275 oligomers/aggregates. Each assay was performed in 1 mL reaction (800 μL of 50% plasma or serum) and 200 μL (30 μg) of each Tau aggregates and the mixtures were incubated at 37° C. for 1 hr. To the each mixture Thioflavin S dye (120 μg) was added and the sample was incubated for additional 30 min at 37° C. After the incubation, each sample was directly used for sample acquisition using flow cytometer (FACS ARIA II, BD Biosciences, San Jose, Calif.). After initial detection of Tau plaque particles, gates were drawn in the acquisition blot to separately sort and isolate fluorescently labeled Tau plaque particles.
as §2, §3

[3] = biological target: T1, Abeta-42 plaque particles (Homo sapiens, UniProt P05067)
T1 construct: Abeta 1-42
Protocol: Next to isolate serum derived Abeta-42 plaque particles, the plasma or serum samples obtained from AD subjects were first centrifuged at 5,000 rpm for 5 min and the supernatants were transferred to new centrifuge tubes. Next, the supernatants were diluted in PBS to make 50% of the serum and plasma samples and used for incubation with Abeta-42 plaque oligomers/aggregates. Each assay was performed in 1 mL reaction (800 μL of 50% plasma or serum) and 200 μL (30 μg) of the Abeta-42 aggregates and the mixtures were incubated at 37° C. for 1 hr. To the mixture Thioflavin S dye (120 μg) was added and the sample was incubated for additional 30 min at 37° C. After the incubation, the mixture was directly used for sample acquisition using flow cytometer (FACS ARIA II, BD Biosciences, San Jose, Calif.). After initial detection of Abeta-42 plaque particles in the acquisition blot, gates were drawn in fluorescent dot blot to separately sort and isolate fluorescently labeled Abeta-42 particles.
as §2, §3
as §4, with “2003). […] Proteins sharing significant peptide evidence were grouped into clusters. Proteins were annotated with GO terms from NCBI (downloaded Jan. 17, 2014).” for “2003).”

[4] = biological target: T2, alpha-synuclein plaque particles (Homo sapiens, UniProt P37840)
T2 construct: 140 amino acids polypeptide
Protocol: To prepare oligomers/aggregates of human alpha-synuclein (140 amino acids polypeptide), 1 mg of the recombinant alpha-synuclein protein was suspended in 1 mL of PBS and the sample was incubated at 37° C. for 2 hrs. After incubation, all the samples were centrifuged for 5 min. at 5000 rpm to remove precipitate, if any, and the supernatant containing oligomers/aggregates were used in vitro plaque particles formation assay. For detecting alpha-synuclein plaque particles Thioflavin S (Ex/Em=430 nm/550 nm) amyloid binding fluorescent dye (10 μg) was used.
Similarly, to isolate alpha-synuclein plaque particles, diluted plasma or serum samples obtained from AD subjects were used for incubation with alpha-synuclein plaque oligomers/aggregates. Each assay was performed in 1 mL reaction (800 μL of 50% plasma or serum) and 200 μL (30 μg) of the alpha-synuclein aggregates and the mixtures were incubated at 37° C. for 1 hr. To the mixture Thioflavin S dye (120 μg) was added and the sample was incubated for additional 30 min at 37° C. After the incubation, the mixture was directly used for sample acquisition using flow cytometer (FACS ARIA II, BD Biosciences, San Jose, Calif.). After initial detection of alpha-synuclein plaque particles, gates were drawn in the acquisition blot to separately sort and isolate fluorescently labeled alpha-synuclein particles.
as §2, §3
Scaffold (version Scaffold_4.2.1, Proteome Software Inc., Portland, Oreg.) was used to validate MS/MS based peptide and protein identifications.

| Substance | Semi-quantitative analysis of proteins binding to different plaque particles: Chl Large [1] | Semi-quantitative analysis of proteins binding to different plaque particles: Chl small [2] | Semi-quantitative analysis of proteins binding to different plaque particles: Tau (Tau plaque particles) | Semi-quantitative analysis of proteins binding to different plaque particles: Abeta-42 [3] | Semi-quantitative analysis of proteins binding to different plaque particles: Synuclein [4] |
| --- | --- | --- | --- | --- | --- |
| Alpha-1-acid glycoprotein 1 | 9 | 8 | 11 | 12 | 7 |
| Alpha-1-antitrypsin | 22 | 21 | 28 |  | 20 |
| Alpha-1B-glycoprotein | 7 | 7 | 6 | 4 | 11 |
| Alpha-2-macroglobulin | 43 | 43 | 45 | 32 | 44 |
| Antithrombin-III | 8 | 6 | 6 | 5 | 9 |
| Apolipoprotein A-I | 21 | 21 | 14 | 19 | 18 |
| Apolipoprotein A-II | 8 | 6 | 10 | 5 | 7 |
| Apolipoprotein B-100 | 47 | 51 | 65 | 62 | 42 |
| Apolipoprotein C-I (TPDVSSALDKLKEFGNTLEDKARELISRIKQSELSAKMREWFSETFQKVKEKLKIDS) | 1 | 1 | 1 | 2 | 0 |
| Apolipoprotein C-III | 4 | 4 | 5 | 4 | 1 |
| Apolipoprotein D | 2 | 2 | 3 | 0 | 1 |
| Apolipoprotein E | 7 | 9 | 13 |  | 8 |
| Cathepsin D | 0 | 0 | 0 | 5 | 0 |
| Cluster of Alpha-1-antitrypsin | 22 | 21 | 28 |  | 20 |
